Entries after “also recorded” stand apart in the source; their conditions may differ. Where no end group is shown, it is not given here.
Assays:
[1] = tested on: Pseudomonas aeruginosa (PA); assay: Murine excisional wound infection model (PA); format: in vivo, mouse infected with Pseudomonas aeruginosa; details: mouse; 1x MBC (6.25 μM), 24 h treatment, vs PBS; p<0.05
Experimental: Excisional wounds in mice are infected with Pseudomonas aeruginosa (PA) for 24 hrs followed by 24 hrs of treatment with E1AM2 or PBS. Each circle represents a single mouse. Statistical analysis was performed by the two-tailed t-test using GraphPad, *p<0.05.
Excisional wounds infected with PA for 24 hours being treated for 24 hours with the E1AM2 V8LQ19L hydrogel at its 1X MBC concentration, compared with hydrogel-only treatment in a mouse model. […] Each circle in the graph represents one mouse. Statistical significance was determined using a t-test, with *p<0.05. The data are presented as colony-forming unit counts presented as means±SEM. […] Collectively, the E1AM2 V8LQ19L peptide showcases unique functionality, combining antibacterial effectiveness and biocompatibility for dermal applications.
The murine wound infection model was carried out as described in 4 with minor modifications. Before infection, PA strain was diluted to an OD ~0.5, and normalized to 1-3×10^7 CFU/ml. A 6 mm biopsy punch (Integra Miltex, New York, USA) was used to create a full-thickness wound, and an inoculum of ~10^5 CFU of the bacteria in a 5 μl volume was applied. The wound was sealed with a Finn chamber on a Scanpor tape (Smart Practice, Phoenix, AZ, USA), and the chamber was fixed to the skin via Tegaderm patch (3M™, Minnesota, USA). […]

[2] = tested on: human keratinocytes; assay: 2D scratch assay, keratinocyte migration; format: cell-based
Experimental: Wound healing is directly associated with the migration speed of keratinocytes. The migration speed of human keratinocytes in presence of E1AM2, V8L (SEQ ID NO: 19), and Q19L variants is tested in comparison with pexiganan (SEQ ID NO: 54). Migration speed of human keratinocytes assessed in a 2D scratch assay at D 0 and D 2 timepoints. Decrease in wound area over time was measured by applying an ImageJ plugin ‘Wound Healing Size Tool’ on bright-field images. The change in wound area over the course of 48 hours was used as a measure of the migration speed of keratinocytes. Each value is the mean±SD (n=3). The p-value was calculated using ANOVA for multiple comparisons (Dunnett's multiple comparisons test). **** p<0.0001. *** p<0.001. ** p <0.01. * p<0.05. […] Both peptides healed wound faster within their respective MIC and MBC concentrations. […] SEQ ID NO: 27=Q19L; SEQ ID NO: 2=E1AM2; SEQ ID NO: 19=V8L.
(§1) Wound closure was compared with the untreated samples (circle, red highlight). For improved clarity, error bars have been omitted from this representation. […] Each value is the mean±SD (n=3). Statistical significance was assessed using ANOVA for multiple comparisons (Dunnett's multiple comparisons test). **** p<0.0001, *** p<0.001, ** p<0.01, *p<0.05, ns denotes nonsignificance, p >0.05.
Wound areas of the human keratinocyte culture were assessed in presence of peptides in a 2D scratch assay at the 0 hour, and 48-hour time points by applying an ImageJ plugin, ‘Wound Healing Size Tool’ on brightfield images. Quantification of wound width was calculated by obtaining the averaged Euclidean distance between each paired pixel at the lateral wound edges. The change in wound area over the course of 48 hours was used as a measure of the migration speed of keratinocytes.
Using the inverted BioTek Lionheart LX Automated Microscope, brightfield images were obtained at 4× magnification to observe the wound area at timepoints 0 (before treatment) and 48 hours-post treatment. Microscopy settings were maintained as focus offset (781.3 μm), illumination (2), integration Time (21) with no gain. To cover the entire well, montage images of four rows by three columns were stitched together by enabling the “image stitching” function and images were saved in tiff-format.

[3] = tested on: human keratinocytes (HaCaT); assay: Cell proliferation assay, HaCaT keratinocytes; format: cell-based
Experimental: as §1
CyQUANT™ Direct Cell Proliferation Assay (ThermoFisher Scientific, Catalogue) was performed as per manufacturer's instructions to determine the safety of the peptides to human keratinocytes. […] The fluorescence intensity and number of stained cells were determined using the LionHeart FX Automated Microscope (BioTek, VT, USA).

[4] = tested on: Staphylococcus aureus (SA); assay: Antimicrobial resistance evolution assay, SA; format: cell-based; details: serial passaging; resistance = >4-fold MIC change
From the text: The development of antimicrobial resistance is defined by greater than a 4-fold change to their initial minimum inhibitory concentration (MIC) at day 1. Exemplary bacteria strains Pseudomonas aeruginosa (PA) and Staphylococcus aureus (SA) are subjected to continuous daily serial passaging over several days, with treatment of exemplary variant peptides E1AM2 (SEQ ID NO: 2) and Q19L (SEQ ID NO: […]) at subinhibitory concentrations. […] The treatments were discontinued when the MIC increased by more than four-fold from the initial MIC or when MIC reached >100 μM.
Briefly, sequential passaging of PA, and SA cells was done with sub-inhibitory concentrations of antibiotics or E1AM2 up to 4 weeks. The cells grown in those concentrations of antibiotics or peptides were diluted to A600 nm (OD600) of ~0.2 and serially passaged daily with the same concentrations at 37° C. with agitation at 24 h intervals.

[5] = tested on: bacteria; assay: Comparison of wild-type peptide E1A to V8LQ19L (Table 14)
From the text: Active peptide sequences based on ENO3 exerting significant bactericidal antibiofilm properties, and relevant to chronic wound healing are previously disclosed. The previously disclosed antimicrobial peptides (AMPs) are longer (>22-residues) in length, which would be more costly in production.

[6] = tested on: fibroblasts (HFF-1); assay: Cell proliferation assay, HFF-1 fibroblasts; format: cell-based; details: 24 h

Substance: E1AM2: untagged (E1AM2), KKLLKKWVKLSKKALKLAQSL
- PA infection at wound site (CFU) [1]: effective reduction of PA infection; also recorded: significant bacterial clearance at the wound site
- migration speed of keratinocytes ([2]; 48 h, E1AM2 3.125-12.5 μM, Q19L 3.125-6.25 μM): increase keratinocyte migration; also recorded: increased the migration speed of keratinocytes significantly

Substance: KKLLKKWLKLSKKALKLALSL-NH2 [V8LQ19L]
- Cytotoxicity at high concentration (100 μM) ([3]; 100 μM, cell line not named in Table 15): Non-cytotoxic
- cytotoxicity to HaCaT ([3]; 24 h, up to highest tested concentrations (peptide), 3% (H2O2)): noncytotoxic
- development of antimicrobial resistance, SA [4]: effective in preventing the acquisition of AMR
- Cationicity [5]: Cationic (bacterial membrane
- Mechanism of killing bacteria [5]: Membrane disintegration
- MIC/MBC ([5]; bacteria not named in Table 14): 1.56 µM
- wound closure, 2D scratch ([2]; up to 16X MBC): did not impair wound healing
- HFF-1 proliferation ([6]; certain concentrations): enhanced proliferation
- cytotoxicity to HFF-1 ([6]; up to highest tested concentrations (peptide), 3% (H2O2)): noncytotoxic
